Source: US10702526B2, “Inhibitors of immune checkpoint modulators and related methods” (eFFECTOR Therapeutics, Inc., priority 2015, dated 2020)

Experiments:
[1] = system: PD-1 expression on Jurkat cells; experiment: PD-1 expression on PHA/PMA-activated Jurkat T cells (flow cytometry); assay type: cell-based, human; conditions: Jurkat T cell assay, MNK-specific inhibitors
Protocol: (§1) To examine the effect of MNK-specific inhibitors on PD-1 expression, Jurkat cells (Clone E6.1, ATCC, transformed T cells) were used, which express PD-1 when activated through T cell receptor (TCR) signaling. Briefly, Jurkat cells were grown in 1×RPMI with 1× Pen/Strep, and 10% FBS, then about 3×10^6 Jurkat cells were activated in presence of 1 μg/mL PHA (Sigma) and 50 ng/mL PMA (Sigma). Test Cells were treated simultaneously with various concentrations of MNK-specific inhibitor Compound 107 (0, 0.01, 0.1, 1, 3 and 10 μM). After 48 hours, culture supernatants were harvested and examined via sandwich ELISA for the presence of IL-2 using human IL-2 ELISA DuoSet® (R&D Systems, Minneapolis, Minn.). The level of PD-1 on Jurkat cells was examined by incubating cells with fixable dead cell stain (1:20,000; BD Biosciences, San Jose, Calif.) for 15 minutes at 4° C., washed twice with flow staining buffer (1×PBS, 4% FBS and 1 mM EDTA), incubated with human FcR block, then contacted with allophycocyanin (APC) conjugated anti-PD-1 antibody (Biolegend, San Diego, Calif.) for 30 minutes at 4° C., washed two times with flow buffer, and finally cells were fixed with fixation buffer for 20 minutes at 4° C. After fixation, cells were washed twice with flow buffer and re-suspended in flow buffer and assessed for fluorescence using BD Accuri C6 flow cytometer. Data were analyzed using the C6 cytometer software (BD Biosciences, San Jose, Calif.).

Jurkat cells = experiment: Jurkat T cell viability (fixable dead cell stain); assay type: cell-based; conditions: Jurkat T cell assay, MNK-specific inhibitors
Protocol: as §1

[2] = system: IL-10 production in primary T cells; experiment: IL-10 production by activated primary T cells; assay type: cell-based, human

SMILES | % PD-1 + Inhibition [1] | Cell Death (Jurkat cells) | % IL-10 Inhibition [2]
Cc1cc(Nc2ncnc(N)c2Cl)c(=O)n2c1C(=O)NC21CCN(CCC(F)(F)F)CC1 [Compound 775] | − (− = 0-10%) | − (− = 0-10%) | 
Cc1cc(Nc2ncnc(N)c2C)cc2c1C(=O)NC21CCCCC1 [Compound 440] | ++++ (++++ = 75-100%) | − (− = 0-10%) | 
Cc1cc(Nc2ncnc3[nH]ccc23)cc2c1C(=O)NC21CCCCC1 [Compound 637] | ++++ (++++ = 75-100%) | ++ (++ = 25-50%) | 
Cc1cc(Nc2ncnc(N)c2C)c(=O)n2c1C(=O)NC21CCOCC1 [Compound 626] | ++ (++ = 25-50%) | − (− = 0-10%) | 
Cc1cc(Nc2ncnc(N)c2C)c(=O)n2c1C(=O)NC21CCN(CCC(F)(F)F)CC1 [Compound 753] | − (− = 0-10%) | − (− = 0-10%) | 
Cc1cc(Nc2ncnc(N)c2Cl)c(=O)n2c1C(=O)NC21CCN(CC(F)F)CC1 [Compound 611] | ++ (++ = 25-50%) | − (− = 0-10%) | 
Cc1cc(Nc2ncnc(N)c2C)c(=O)n2c1C(=O)NC21CCCN(C)C1 (stereo not shown) [Compound 917] | ++ (++ = 25-50%) | + (+ = 10-25%) | 
Cc1cc(Nc2ncnc(N)c2Cl)cc2c1C(=O)NC21CCCCC1 [Compound 462] | ++++ (++++ = 75-100%) | + (+ = 10-25%) | 
Cc1cc(Nc2ncnc(N)c2C)c(=O)n2c1C(=O)NC21CNCCC1(C)C (stereo not shown) [Compound 1091] | ++ (++ = 25-50%) | − (− = 0-10%) | 
Cc1cc(Nc2ncnc(N)c2Cl)c(=O)n2c1C(=O)NC21CCCCC1 [Compound 474] | +++ (+++ = 50-75%) | − (− = 0-10%) | ++++ (++++ = 75-100%)
Cc1cc(Nc2ncnc(N)c2Cl)c(=O)n2c1C(=O)N[C@]21CCCNC1 [Compound 969] | +++ (+++ = 50-75%) | − (− = 0-10%) | 
Cc1cc(Nc2ncnc(N)c2Cl)c(=O)n2c1C(=O)NC21CCCNC1 (stereo not shown) [Compound 750] | +++ (+++ = 50-75%) | − (− = 0-10%) | ++++ (++++ = 75-100%)
Cc1cc(Nc2ncnc(N)c2C)c(=O)n2c1C(=O)NC21CCN(CC(F)F)CC1 [Compound 590] | ++ (++ = 25-50%) | − (− = 0-10%) | ++++ (++++ = 75-100%)
Cc1cc(Nc2cc(N)ncn2)c(=O)n2c1C(=O)NC21CCCC1.Cl [Compound 98] | +++ (+++ = 50-75%) | − (− = 0-10%) | 
Cc1cc(Nc2ncnc(N)c2Cl)c(=O)n2c1C(=O)NC21CCN(C2CC2)CC1 [Compound 752] | − (− = 0-10%) | − (− = 0-10%) | 
Cc1cc(Nc2ncnc(N)c2Cl)c(=O)n2c1C(=O)NC21CCN(C)CC1(C)C (stereo not shown) [Compound 1008] | +++ (+++ = 50-75%) | ++ (++ = 25-50%) | 
Cc1cc(Nc2ncnc(N)c2C)c(=O)n2c1C(=O)NC21CCN(CC(F)F)CC1(C)C (stereo not shown) [Compound 1092] | ++ (++ = 25-50%) | − (− = 0-10%) | 
Cc1cc(Nc2ncnc(N)c2Cl)c(=O)n2c1C(=O)NC21CCN(C)C(C)(C)C1 (stereo not shown) [Compound 1053] | + (+ = 10-25%) | − (− = 0-10%) | 
Cc1cc(Nc2ncnc(N)c2Cl)c(=O)n2c1C(=O)NC21CNCCC1(C)C (stereo not shown) [Compound 1090] | +++ (+++ = 50-75%) | + (+ = 10-25%) | 
Cc1cc(Nc2ncnc(N)c2Cl)nc2c1C(=O)NC21CCCCC1 [Compound 624] | ++++ (++++ = 75-100%) | + (+ = 10-25%) | 
Cc1cc(Nc2ncnc(N)c2Cl)c(=O)n2c1C(=O)N[C@@]21CCCNC1 [Compound 970] | +++ (+++ = 50-75%) | − (− = 0-10%) | 
Cc1cc(Nc2ncnc(N)c2C)nc2c1C(=O)NC21CCCCC1 [Compound 622] | ++++ (++++ = 75-100%) | − (− = 0-10%) | 
Cc1cc(-n2ccc3c(N)ncnc32)nc2c1C(=O)NC21CCCCC1 [Compound 652] | ++++ (++++ = 75-100%) | − (− = 0-10%) | 
Cc1cc(Nc2ncnc(N)c2Cl)c(=O)n2c1C(=O)NC21CC(C)N(C)C(C)C1 (stereo not shown) [Compound 1031] | +++ (+++ = 50-75%) | +++ (+++ = 50-75%) | 
Cc1cc(Nc2ncnc(N)c2OCCN)c(=O)n2c1C(=O)NC21CCCCC1 [Compound 827] | ++ (++ = 25-50%) | − (− = 0-10%) | 
CCCN1CCC2(CC1)NC(=O)c1c(C)cc(Nc3ncnc(N)c3Cl)c(=O)n12 [Compound 776] | + (+ = 10-25%) | − (− = 0-10%) | 
